# In US11603355B2, “Charged ion channel blockers and methods for use” (Nocion Therapeutics, Inc., priority 2019, dated 2023):
# How the values were obtained:
# NaV1.7 [1] = molecular target: T1, NaV1.7 (Homo sapiens, UniProt Q15858); experiment: Automated patch clamp (Qube 384), internal block of NaV1.7; type: cell-based; conditions: IC50, compound in internal solution, HEK293 cells, read-out: Nav1.7 Intracellular Inhibition
# T1 construct: expressed in transfected cells; host or cells: HEK293 (tetracycline-inducible)
# How it was run: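 Tetracycline-induced HEK293 cells, whole-cell Qube recording at 22 degrees; compounds dissolved in internal solution (CsF-based, pH 7.3), exchanged after baseline. Held at −100 mV, 10 ms pulses to −20 mV at 5 Hz for 10 min; remaining current (last 3 points) vs baseline, rundown-corrected with no-drug cells; Hill-fit IC50.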
# NaV1.7 [2] = molecular target: T1, NaV1.7; experiment: Automated patch clamp (Qube 384), external block of NaV1.7; type: cell-based; conditions: IC50, compound in external solution, HEK293 cells, read-out: Nav1.7 Extracellular Inhibition
# Method: NaV1.7 was expressed in HEK293 cells upon induction with tetracycline. Cells were cultured in DMEM containing 10% dialyzed Fetal Bovine Serum (VWR, Radnor, Pa.), 1% Glutamax (VWR, Radnor, Pa.), 1% Penicillin-Streptomycin (VWR, Radnor, Pa.), 100 mg/L Hygromycin (Thermo Fisher Scientific, Waltham, Mass. and 5 mg/L Blasticidin (Alfa Aesar, Haverhill, Mass.). Cells were grown and maintained at 37° C. in a humidified environment containing 10% CO2 in air. Cells were detached from the culture flask for passage and harvested using 0.05% Trypsin-EDTA (Thermo Fisher Scientific, Waltham, Mass.). To induce NaV1.7, cells were induced with tetracycline (0.1-1 μg/mL, IBI Scientific, Peosta, Iowa) the day before recording.
# Before experiments, cells were washed with DPBS (VWR, Radnor, Pa.), digested with Detachin (VWR Radnor, Pa.) and then triturated 10 times in CHO Serum-Free Media (VWR Radnor, Pa.) to resuspend the cells and to break apart cell aggregates. Cells were counted and the final concentration was set at 2-5 million cells per mL.
# The intracellular solution contained the following: 140 mM CsF, 1 mM/5 mM EGTA/CsOH, 10 mM HEPES, 10 mM NaCl, adjusted to pH 7.3 with CsOH, and osmolality to 320 with OSM solution. The external solution contained the following: 145 mM NaCl, 4 mM KCl, 1 mM MgCl2, 2 mM CaCl2), 10 mM HEPES, 10 mM Glucose, adjusted to pH 7.4 with CsOH and osmolality to 305 with OSM solution. The OSM solution was a normal Ringer solution containing (in mM) NaCl 155, HEPES 10, sucrose, KCl 3.5, CaCl2) 1.5, MgCl2 1 adjusted to pH 7.4 with NaOH. All chemicals are from Sigma-Aldrich, St. Louis, Mo. In order to test the degree of internal block by test compounds, the compounds were dissolved in internal solution at the indicated test concentration. […] In order to test the degree of external block by test compounds the compounds were dissolved in external solution at the indicated test concentration.
# Automated Patch Clamps were performed on Qube 384 (Sophion Bioscience, Woburn Mass.) with multihole Qchips at a temperature setting of 22 degrees. The whole cells configuration was formed with default Qube seal and break-in parameter. The membrane potential was held at −100 mV before the voltage protocol began. Two voltage protocols were followed.
# Step 1: Cells were held at −100 mV with a depolarized pulse to −20 mV for 10 ms, the interval was set at 5 s. Currents were corrected by default leak subtraction from every pulse. The duration was set at 5 mins.
# Step 2: Cells were held at −100 mV with a depolarized pulse to −20 mV for 10 ms. The frequency was 5 Hz. Currents were corrected by leak subtraction calculated before step 2. The duration was set at 4 mins.
# After Step 2, the external solution was changed with solutions containing test compounds. Qchips were held at −100 mV without pulsing. The total solution switching time was 8 minutes. After the external solution exchange, cells were recorded using the same procedure as step 2 for 10 minutes.
# Data analysis was performed by Sophion Analyzer. Data were corrected with control cells (Non-Drug). The IC50 data were plotted with DR-plots/Hill function (a dose-response plot with a Hill fit). Representative examples of the invention were tested for extracellular inhibition of NaV 1.7 in the automated patch clamp assay. Activity Range is reported as IC50: “++++” ([…], “+++” (1-3 μM), “++” ([…]) or “+” (>10 μM). The results are presented below.
# [3] = PAMPA membrane permeability assay; type: in vitro ADME; conditions: permeability coefficient, pH 7.4 buffer, GIT lipid, 4 hours incubation
# How it was run: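 Passive diffusion across a GIT-lipid-painted artificial membrane at pH 7.4, with a 50 uM donor stock diluted from DMSO and a 4 h incubation. UV spectra of the donor, acceptor and reference plates were read, and the permeability coefficient was calculated from the AUCs, in 10^−6 cm/s.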
# T1 sequence (Q15858 whole entry): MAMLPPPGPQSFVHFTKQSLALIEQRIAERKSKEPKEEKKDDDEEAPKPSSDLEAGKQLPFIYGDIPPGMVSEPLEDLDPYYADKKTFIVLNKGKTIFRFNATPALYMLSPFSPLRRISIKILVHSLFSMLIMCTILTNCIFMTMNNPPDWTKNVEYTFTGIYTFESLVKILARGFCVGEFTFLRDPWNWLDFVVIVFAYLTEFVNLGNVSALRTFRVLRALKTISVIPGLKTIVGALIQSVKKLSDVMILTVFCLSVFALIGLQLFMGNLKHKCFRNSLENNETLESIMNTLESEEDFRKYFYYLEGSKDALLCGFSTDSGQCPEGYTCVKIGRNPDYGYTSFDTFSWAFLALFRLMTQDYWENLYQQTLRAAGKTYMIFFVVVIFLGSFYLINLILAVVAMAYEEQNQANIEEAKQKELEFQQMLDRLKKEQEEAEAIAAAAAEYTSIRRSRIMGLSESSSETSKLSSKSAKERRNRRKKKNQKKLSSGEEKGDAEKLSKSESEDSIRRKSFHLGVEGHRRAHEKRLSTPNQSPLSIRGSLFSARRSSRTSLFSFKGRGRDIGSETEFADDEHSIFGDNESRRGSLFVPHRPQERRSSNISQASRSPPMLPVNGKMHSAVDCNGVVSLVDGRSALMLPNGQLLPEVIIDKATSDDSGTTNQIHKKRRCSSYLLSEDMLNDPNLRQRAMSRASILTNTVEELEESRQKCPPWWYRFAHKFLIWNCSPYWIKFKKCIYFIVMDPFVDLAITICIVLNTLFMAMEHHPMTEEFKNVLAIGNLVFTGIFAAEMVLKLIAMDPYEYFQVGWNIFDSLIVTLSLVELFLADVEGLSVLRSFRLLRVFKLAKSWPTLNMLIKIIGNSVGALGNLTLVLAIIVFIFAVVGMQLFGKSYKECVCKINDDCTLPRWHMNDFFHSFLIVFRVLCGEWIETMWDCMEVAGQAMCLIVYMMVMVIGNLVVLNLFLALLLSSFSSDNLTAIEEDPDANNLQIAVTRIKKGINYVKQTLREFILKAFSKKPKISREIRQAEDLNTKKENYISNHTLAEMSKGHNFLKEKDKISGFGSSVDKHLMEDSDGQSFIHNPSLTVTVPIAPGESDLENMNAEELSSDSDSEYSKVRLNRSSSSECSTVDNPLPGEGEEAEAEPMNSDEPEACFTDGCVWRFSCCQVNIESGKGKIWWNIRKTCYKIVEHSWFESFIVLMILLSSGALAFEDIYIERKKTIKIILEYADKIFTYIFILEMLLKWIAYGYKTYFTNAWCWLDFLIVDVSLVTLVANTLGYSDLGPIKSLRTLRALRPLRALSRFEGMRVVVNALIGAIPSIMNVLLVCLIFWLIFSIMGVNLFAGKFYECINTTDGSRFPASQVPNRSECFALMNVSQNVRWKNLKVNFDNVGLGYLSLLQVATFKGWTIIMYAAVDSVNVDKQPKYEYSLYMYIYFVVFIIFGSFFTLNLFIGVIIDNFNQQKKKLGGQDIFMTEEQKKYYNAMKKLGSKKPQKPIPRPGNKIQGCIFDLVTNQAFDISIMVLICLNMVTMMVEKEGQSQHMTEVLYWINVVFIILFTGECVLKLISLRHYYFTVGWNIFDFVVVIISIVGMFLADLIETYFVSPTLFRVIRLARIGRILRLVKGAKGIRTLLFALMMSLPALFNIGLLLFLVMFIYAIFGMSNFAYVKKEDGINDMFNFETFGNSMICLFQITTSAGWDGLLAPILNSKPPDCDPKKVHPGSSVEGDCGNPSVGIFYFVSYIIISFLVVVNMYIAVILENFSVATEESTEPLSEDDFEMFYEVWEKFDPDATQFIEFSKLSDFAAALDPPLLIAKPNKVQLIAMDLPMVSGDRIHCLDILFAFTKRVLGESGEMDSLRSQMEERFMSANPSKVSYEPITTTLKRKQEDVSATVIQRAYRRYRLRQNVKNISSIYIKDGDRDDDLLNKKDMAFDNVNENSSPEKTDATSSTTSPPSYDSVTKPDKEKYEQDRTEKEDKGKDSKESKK
Compound,IC50 (NaV1.7 [1]),IC50 (NaV1.7 [2]),PAMPA (10^−6 cm/s) [3]
CCCNC(=O)C1CCC[N+](CC(=O)Nc2c(C)cccc2C)(Cc2ccccc2)C1 (stereo not drawn) [Compound 57A],0.3 to 1 µM,3 to 10 µM,+ (“+” (<0.1 10^−6 cm/s))
"CCCCNc1ccc(NC(=O)C[N+]2(Cc3ccccc3)CCCCCC2)cc1.O=C[O-] [Compound 41A, 1-benzyl-1-(2-((4-(butylamino)phenyl)amino)-2-oxoethyl) azepan-1-ium formate]",3 to 10 µM,> 10 µM,+ (“+” (<0.1 10^−6 cm/s))
CCN(CC)C(=O)C1CCC[N+](CC(=O)Nc2c(C)cccc2C)(Cc2ccccc2)C1 (stereo not drawn) [Compound 66A],1 to 3 µM,> 10 µM,+ (“+” (<0.1 10^−6 cm/s))
CCCc1cccc(C)c1NC(=O)C[N+]1(Cc2ccccc2)CCCCCC1.[Br-] [Compound 75A],1 to 3 µM,3 to 10 µM,+ (“+” (<0.1 10^−6 cm/s))
1-benzyl-1-(2-((2-(dimethylcarbamoyl)-6-methylphenyl) amino)-2-oxoethyl) azepan-1-ium bromide [Compound 81A],0.3 to 1 µM,> 10 µM,+ (“+” (<0.1 10^−6 cm/s))
"CCNC(=O)C1CCC[N+](CC(=O)Nc2c(C)cccc2C)(Cc2ccccc2)C1.[Br-] (stereo not drawn) [Compound 54A, 1-benzyl-1-(2-((2,6-dimethylphenyl)amino)-2-oxoethyl)-3-(ethylcarbamoyl) piperidin-1-ium bromide]",0.3 to 1 µM,> 10 µM,+ (“+” (<0.1 10^−6 cm/s))
